Source: patent US11491232B2, “Lactuloside compounds and preparation and use thereof” (Fruithy Holdings Limited, priority 2017, dated 2022)

Key:
[1] = Test on stability in mediums in vitro (buffer solutions with different pH, simulated intestinal fluid, simulated gastric fluid); type: physicochemical
Method: At 37° C., Compound 17 was incubated in different mediums (buffer solutions with different pH, a simulated intestinal fluid containing pancreatin, and simulated gastric fluid containing pepsin).
(§1) Other typical example compounds were tested for stability according to the above method, and the test results are shown in Table 8 below.

colon flora = experiment: Stability in the presence of colon flora (content in colon of rat); type: in vitro ADME, SD rat; conditions: male, rat, pH 6.8
Method: A phosphate buffer solution with a pH of 7.0 was formulated, and then CO2 was introduced to the solution to adjust the pH to 6.8. Then, the content in colon of a male SD rat (body weight: 180-220 g) was placed in a water bath at 37° C., and added into the phosphate buffer solution with a pH of 6.8 as prepared above under the protection of N2 to a concentration of 20% (w/v). The buffer solution was kept in an oxygen-free environment. Then, the test Compound 17 was added to the buffer solution, and the solution was stirred uniformly.
Supernatant was analyzed with HPLC, where the amount of each ingredient was calculated by normalization.
Note: in the above table, “T14.148 (%)” represents the percentage of peak area of the material with a retention time of 14.148 min “T14.713 (%)” represents the percentage of peak area of the material with a retention time of 14.713 min. “T16.392 (%)” represents the percentage of peak area of the material with a retention time of 16.392 min. “T22.624 (%)” represents the percentage of peak area of the material with a retention time of 22.624 min.
as §1

C[C@]12C=CC(=O)C=C1CC[C@@H]1[C@@H]2C(=O)C[C@@]2(C)[C@H]1CC[C@]2(O)C(=O)COC1(CO)O[C@H](CO)[C@@H](O[C@@H]2O[C@H](CO)[C@H](O)[C@H](O)[C@H]2O)[C@@H]1O (stereo partly drawn) [Compound 17, 17-hydroxyl-21-{[4-O-(β-D-galactopyranosyl)-D-fructofuranosyl]oxy}pregna-1,4-diene-3,11,20-trione]
Compound 17 (%) ([1]; Acetate buffer solution, pH 4.0, 37° C., 0 h): 99.6% | Compound 17 (%) ([1]; Acetate buffer solution, pH 4.0, 37° C., 0.5 h): 99.6% | Compound 17 (%) ([1]; Acetate buffer solution, pH 4.0, 37° C., 1 h): 99.5% | Compound 17 (%) ([1]; Acetate buffer solution, pH 4.0, 37° C., 1.5 h): 99.4% | Compound 17 (%) ([1]; Acetate buffer solution, pH 4.0, 37° C., 4 h): 99.2% | Compound 17 (%) ([1]; Acetate buffer solution, pH 4.0, 37° C., 20 h): 97.1% | Compound 17 (%) ([1]; Acetate buffer solution, pH 4.0, 37° C., 24 h): 96.5% | Compound 17 (%) ([1]; Hydrochloric acid solution, pH 1.2, 37° C., 0 h): 96.0% | Compound 17 (%) ([1]; Hydrochloric acid solution, pH 1.2, 37° C., 0.5 h): 47.1% | Compound 17 (%) ([1]; Hydrochloric acid solution, pH 1.2, 37° C., 1 h): 22.1% | Compound 17 (%) ([1]; Hydrochloric acid solution, pH 1.2, 37° C., 2 h): 4.5% | Compound 17 (%) ([1]; Hydrochloric acid solution, pH 1.2, 37° C., 3 h): 1.0% | Compound 17 (%) ([1]; Hydrochloric acid solution, pH 2.0, 37° C., 0 h): 99.7% | Compound 17 (%) ([1]; Hydrochloric acid solution, pH 2.0, 37° C., 0.5 h): 93.3% | Compound 17 (%) ([1]; Hydrochloric acid solution, pH 2.0, 37° C., 1 h): 86.5% | Compound 17 (%) ([1]; Hydrochloric acid solution, pH 2.0, 37° C., 1.5 h): 80.1% | Compound 17 (%) ([1]; Hydrochloric acid solution, pH 2.0, 37° C., 2 h): 74.6% | Compound 17 (%) ([1]; Hydrochloric acid solution, pH 2.0, 37° C., 3 h): 64.5% | Compound 17 (%) ([1]; Hydrochloric acid solution, pH 2.0, 37° C., 4 h): 55.3% | Compound 17 (%) ([1]; Hydrochloric acid solution, pH 2.0, 37° C., 8 h): 30.8% | Compound 17 (%) ([1]; Hydrochloric acid solution, pH 2.0, 37° C., 24 h): 2.5% | Compound 17 (%) ([1]; Phosphate buffer solution, pH 5.8, 37° C., 0 h): 99.5% | Compound 17 (%) ([1]; Phosphate buffer solution, pH 5.8, 37° C., 1 h): 97.3% | Compound 17 (%) ([1]; Phosphate buffer solution, pH 5.8, 37° C., 6 h): 99.4% | Compound 17 (%) ([1]; Phosphate buffer solution, pH 5.8, 37° C., 8 h): 99.5% | Compound 17 (%) ([1]; Phosphate buffer solution, pH 5.8, 37° C., 33 h): 99.3% | Compound 17 (%) ([1]; Phosphate buffer solution, pH 6.8, 37° C., 0 h): 97.3% | Compound 17 (%) ([1]; Phosphate buffer solution, pH 6.8, 37° C., 1 h): 97.5% | Compound 17 (%) ([1]; Phosphate buffer solution, pH 6.8, 37° C., 6 h): 99.0% | Compound 17 (%) ([1]; Phosphate buffer solution, pH 6.8, 37° C., 8 h): 99.0% | Compound 17 (%) ([1]; Phosphate buffer solution, pH 6.8, 37° C., 33 h): 97.6% | Compound 17 (%) ([1]; Phosphate buffer solution, pH 7.8, 37° C., 0 h): 97.5% | Compound 17 (%) ([1]; Phosphate buffer solution, pH 7.8, 37° C., 1 h): 97.6% | Compound 17 (%) ([1]; Phosphate buffer solution, pH 7.8, 37° C., 6 h): 97.6% | Compound 17 (%) ([1]; Phosphate buffer solution, pH 7.8, 37° C., 8 h): 97.6% | Compound 17 (%) ([1]; Phosphate buffer solution, pH 7.8, 37° C., 33 h): 97.7% | Compound 17 (%) ([1]; Simulated gastric fluid (containing pepsin) (pH 2.0), 37° C., 0 h): 97.0% | Compound 17 (%) ([1]; Simulated gastric fluid (containing pepsin) (pH 2.0), 37° C., 0.5 h): 53.6% | Compound 17 (%) ([1]; Simulated gastric fluid (containing pepsin) (pH 2.0), 37° C., 1 h): 28.9% | Compound 17 (%) ([1]; Simulated gastric fluid (containing pepsin) (pH 2.0), 37° C., 1.5 h): 15.6% | Compound 17 (%) ([1]; Simulated gastric fluid (containing pepsin) (pH 2.0), 37° C., 2 h): 7.0% | Compound 17 (%) ([1]; Simulated gastric fluid (containing pepsin) (pH 2.0), 37° C., 3 h): 2.1% | Compound 17 (%) ([1]; Simulated intestinal fluid (containing pancreatin) (pH 6.8), 37° C., 0 h): 97.6% | Compound 17 (%) ([1]; Simulated intestinal fluid (containing pancreatin) (pH 6.8), 37° C., 1 h): 97.4% | Compound 17 (%) ([1]; Simulated intestinal fluid (containing pancreatin) (pH 6.8), 37° C., 6 h): 97.7% | Compound 17 (%) ([1]; Simulated intestinal fluid (containing pancreatin) (pH 6.8), 37° C., 8 h): 97.7% | Compound 17 (%) ([1]; Simulated intestinal fluid (containing pancreatin) (pH 6.8), 37° C., 33 h): 96.2% | Compound 17 (%) ([1]; Water (pH 6.2), 37° C., 0 h): 97.6% | Compound 17 (%) ([1]; Water (pH 6.2), 37° C., 1 h): 97.6% | Compound 17 (%) ([1]; Water (pH 6.2), 37° C., 6 h): 97.6% | Compound 17 (%) ([1]; Water (pH 6.2), 37° C., 8 h): 98.2% | Compound 17 (%) ([1]; Water (pH 6.2), 37° C., 33 h): 98.0% | percentage of remaining Compound 17 ([1]; pH 2.0 or higher, within 1.5 hours, 37° C.): greater than 80% | Compound 17 (%) (colon flora; SD, 0 h): 84.8% | T14.148 (%) (percentage of peak area of the material with a retention time of 14.148 min) (colon flora; SD, 0 h): 13.5% | T22.624 (%) (percentage of peak area of the material with a retention time of 22.624 min) (colon flora; SD, 0 h): 0.0% | Compound 17 (%) (colon flora; SD, 1 h): 49.0% | T14.148 (%) (percentage of peak area of the material with a retention time of 14.148 min) (colon flora; SD, 1 h): 42.5% | T22.624 (%) (percentage of peak area of the material with a retention time of 22.624 min) (colon flora; SD, 1 h): 0.0% | Compound 17 (%) (colon flora; SD, 2 h): 25.3% | T22.624 (%) (percentage of peak area of the material with a retention time of 22.624 min) (colon flora; SD, 2 h): 0.0% | T22.624 (%) (percentage of peak area of the material with a retention time of 22.624 min) (colon flora; SD, 3 h): 0.0% | Compound 17 (%) (colon flora; SD, 20 h): 0.0% | T22.624 (%) (percentage of peak area of the material with a retention time of 22.624 min) (colon flora; SD, 20 h): 7.8% | Prednisone (%) (released from Compound 17) (colon flora; Sprague-Dawley (SD), 0 h): 1.7% | T14.713 (%) (percentage of peak area of the material with a retention time of 14.713 min) (colon flora; Sprague-Dawley (SD), 0 h): 0.0% | T16.392 (%) (percentage of peak area of the material with a retention time of 16.392 min) (colon flora; Sprague-Dawley (SD), 0 h): 0.0% | Prednisone (%) (released from Compound 17) (colon flora; Sprague-Dawley (SD), 1 h): 8.1% | T14.713 (%) (percentage of peak area of the material with a retention time of 14.713 min) (colon flora; Sprague-Dawley (SD), 1 h): 0.0% | T16.392 (%) (percentage of peak area of the material with a retention time of 16.392 min) (colon flora; Sprague-Dawley (SD), 1 h): 0.0% | Prednisone (%) (released from Compound 17) (colon flora; Sprague-Dawley (SD), 2 h): 14.7% | T14.148 (%) (percentage of peak area of the material with a retention time of 14.148 min) (colon flora; Sprague-Dawley (SD), 2 h): 59.1% | T14.713 (%) (percentage of peak area of the material with a retention time of 14.713 min) (colon flora; Sprague-Dawley (SD), 2 h): 0.0% | T16.392 (%) (percentage of peak area of the material with a retention time of 16.392 min) (colon flora; Sprague-Dawley (SD), 2 h): 0.0% | Prednisone (%) (released from Compound 17) (colon flora; Sprague-Dawley (SD), 3 h): 21.2% | T14.148 (%) (percentage of peak area of the material with a retention time of 14.148 min) (colon flora; Sprague-Dawley (SD), 3 h): 65.5% | T14.713 (%) (percentage of peak area of the material with a retention time of 14.713 min) (colon flora; Sprague-Dawley (SD), 3 h): 0.0% | T16.392 (%) (percentage of peak area of the material with a retention time of 16.392 min) (colon flora; Sprague-Dawley (SD), 3 h): 0.0% | Prednisone (%) (released from Compound 17) (colon flora; Sprague-Dawley (SD), 20 h): 39.7% | T14.148 (%) (percentage of peak area of the material with a retention time of 14.148 min) (colon flora; Sprague-Dawley (SD), 20 h): 12.7% | T14.713 (%) (percentage of peak area of the material with a retention time of 14.713 min) (colon flora; Sprague-Dawley (SD), 20 h): 19.2% | T16.392 (%) (percentage of peak area of the material with a retention time of 16.392 min) (colon flora; Sprague-Dawley (SD), 20 h): 6.4% | Compound 17 (%) (colon flora; Sprague-Dawley, 3 h): 11.3% | percentage of the compound degraded (colon flora; Sprague-Dawley, 3 h): about 90%
